Reference: ChEMBL document CHEMBL4483862, “Open-source discovery of chemical leads for next-generation chemoprotective antimalarials” (2018)

Test system: Plasmodium berghei
Assay: Luciferase/luciferin-expressing antifolate-resistant parasites were used to infect a culture of HepG2 cells that were pre-incubated with compounds. Infected hepatocytes emit light due to the luciferase reaction. Assay results are presented as the percent inhibition of light emission compared to control. […]
Format: functional
Conditions: sporozoite; for IC50: read-out: LUCIFERASE INFECTION ASSAY - IC50; for IC90: read-out: LUCIFERASE INFECTION ASSAY - IC90

Structure (SMILES) | IC50 [µM] | IC90 [µM]
Oc1ccccc1Nc1nc(NCc2ccccc2)c2ccccc2n1 | 2.58 | > 8.71
Cc1onc(-c2c(F)cccc2Cl)c1C(=O)NC1CCSC1=O (centres undefined) | > 9.3 | > 9.3
CCOc1ccccc1NC(=O)c1cc(CC(C)C)oc1C | > 10.9 | > 10.9
CCN(CC)C(=O)CSc1nnc2nnc3cc(C)ccc3n12 | > 9.99 | > 9.99
Cn1nc(C(C)(C)C)cc1NC(=O)Nc1cc(Cl)cc(Cl)c1 | > 9.67 | > 9.67
c1ccc(CN2CCC(Nc3ncnc4sccc34)CC2)cc1 | 8.87 | > 10
NC(c1csc(Nc2nccc(C(F)(F)F)n2)n1)C1CCCCC1 (centres undefined) | 2.8 | 3.66
C=CCNc1nc(Nc2ccc(OC)c(OC)c2)c2sc(-c3ccccc3)cc2n1 | 3.61 | > 7.88
CCNC(=O)C1CCCN(C(=O)c2c(-c3ccccc3)noc2C)CC1 (centres undefined) | > 9.28 | > 9.28
c1csc(-c2cnc3sc(NCC4CCOCC4)nn23)c1 | > 10.3 | > 10.3
Nc1nnc(SCc2c(F)cccc2Cl)[nH]1 | > 12.8 | > 12.8
O=C(NC(=O)N1CCc2c([nH]c3ccccc23)C1C(F)(F)F)c1ccccc1 (centres undefined) | > 8.52 | > 8.52
COc1ccc(-c2cnc3sc(NCCc4ccc(S(N)(=O)=O)cc4)nn23)cn1 | > 7.67 | > 7.67
N#CCS(=O)(=O)c1ccc(OC(F)(F)F)cc1 | > 12.4 | > 12.4
FC(F)(F)c1cccc(-c2nc3ccnc(Nc4ccccc4)c3[nH]2)c1 | 3.2 | > 10
CC1=CC(=O)N(c2cc(Cl)cc(Cl)c2)C1=O | > 12.9 | > 12.9
CC(C)OC(=O)Nc1cc(Cl)cc(Cl)c1 | > 13.3 | > 13.3
O=C(Nc1cc(Cl)cc(Cl)c1)N1CCC(n2cccc2)CC1 | > 9.76 | > 9.76
CC(=O)Nc1ccc(-c2cnc3ccc(-c4ccoc4)nn23)cc1 | 3.52 | 4.31
Cc1c2cnn(C)c(=O)c2c(C)n1-c1ccccc1 | > 13 | > 13
COCC(C)NS(=O)(=O)c1c(C(C)C)cc(C(C)C)cc1C(C)C (centres undefined) | > 9.28 | > 9.28
CSc1ccc(OC(=O)Nc2ccccc2)cc1 | > 12.7 | > 12.7
CCOC(=O)N1CCN(C2c3ccccc3-c3ccccc32)CC1 | 8.79 | > 10.2

Structure (SMILES) | IC50 [µM] | IC90 [µM]
O=C(CN1CCCCC1)Nc1c(F)cccc1F | > 13 | > 13
COc1ccc(CO)c(Cl)c1OC | > 16.3 | > 16.3
CN(C)CCNC(=O)c1ccc(-c2cc(-c3cc4ccccc4s3)cnc2N)cc1 | > 7.92 | > 7.92
CCOc1nc(N)c(C#N)c(-c2ccc(C(F)(F)F)cc2)c1C#N | 4.53 | 8.21
CSc1sc(C(=O)Sc2ccccc2)cc1S(=O)(=O)C(C)C | > 8.86 | > 8.86
O=C1NCCN1CCNc1nn2c(-c3cccc(OC(F)(F)F)c3)cnc2s1 | > 8 | > 8
Cc1ccc(S(=O)(=O)NN=c2nc[nH]c3sccc23)cc1 | 2.59 | 5.7
Cc1c(C(=O)Nc2cccc(Cl)c2)sc2nc(C(F)(F)F)nn12 | > 9.15 | > 9.15
NC(c1csc(Nc2cc(NCc3ccco3)ncn2)n1)C1CCCCC1 (centres undefined) | > 8.58 | > 8.58
FC(F)(F)c1ccc(NCCNc2ccc(C(F)(F)F)cn2)nc1 | 1.24 | 2.55
COc1cc(-c2cncc(Nc3cccc(C(F)(F)F)c3)n2)cc(OC)c1OC | 4.6 | > 8.14
COc1ccc(Nc2nccc3nc(-c4cccc(OC(F)(F)F)c4)[nH]c23)cc1OC | 3.54 | > 10
Clc1ccc(CNc2ncnc3sccc23)cc1 | 3.31 | > 10
CCN(CC)CCNC(=O)c1ccc(Nc2ccn3nc(-c4ccc(Cl)cc4)cc3n2)cc1 | > 7.13 | > 7.13
O=C(CNc1cc(C(F)(F)F)cc(C(F)(F)F)c1)NC(=O)NC1CCCC1 | 5.94 | > 10
c1ccc(CCNc2nn3c(-c4ccsc4)cnc3s2)nc1 | > 10.1 | > 10.1
COc1ccc(-c2cnc3sc(NCCc4ccncc4)nn23)cn1 | > 9.36 | > 9.36
O=C(Nc1ccccc1)c1ccc(C#Cc2ccccc2)o1 | > 11.5 | > 11.5
CSc1sc(Cl)c(-c2ccc(Cl)cc2)c1C#N | > 11 | > 11
CC(=O)Nc1cnc(-c2ccccc2N(C)C)cn1 | > 12.9 | > 12.9
CSc1nnc(-c2ccc(C(C)(C)C)cc2)n1C | > 12.6 | > 12.6
COc1ccc(-c2cncc(-c3ccc(N)cc3)n2)cc1 | 7.82 | 11.7
COc1cc(NS(=O)(=O)c2ccc(C)cc2)c(OC)cc1Cl | 2.01 | 3.66

Structure (SMILES) | IC50 [µM] | IC90 [µM]
Cc1cc(C)c(S(=O)(=O)N2CCC(C(=O)Nc3nnc(C)o3)CC2)c(C)c1 | > 10 | > 10
CC(=O)Nc1ccc(-c2cnc3ccc(-c4cccnc4)nn23)cc1 | 0.572 | 1.22
Cc1ccc(Oc2cccc(F)c2C#N)cc1 | > 14.5 | > 14.5
COc1ccccc1N1CCN(S(=O)(=O)c2cccc(Cl)c2)CC1 | > 9 | > 9
N#Cc1ccc(N2CCCN(C(=O)Nc3cc(Cl)cc(Cl)c3)CC2)nc1 | > 8.46 | > 8.46
COc1cccc(-c2ccc3ncc(-c4cccc(C(=O)NCCN(C)C)c4)n3n2)c1 | 1.69 | 4.07
FC(F)(F)Oc1cccc(-c2nc3ccnc(NCCc4ccncc4)c3[nH]2)c1 | 3.37 | > 10
O=C(CCN1CCOCC1)Nc1cc(C(F)(F)F)ccc1Cl | > 9.8 | > 9.8
CN(C)CCN1CCN(c2cccc(-c3ccc(-c4ccccc4)cc3)n2)CC1 | 5.35 | > 8.54
CN(C)c1cccc(CNc2nccc3nc(-c4ccncc4)[nH]c23)c1 | > 10 | > 10
N#Cc1ccc(NC(=O)Nc2ccc(C#N)cc2)cc1 | 3.52 | 4.08
Cn1c(CSc2cccs2)nnc1SCC(=O)Nc1ccc(F)cc1F | > 8 | > 8
OC1CCC(Nc2nn3c(-c4ccc5ccccc5c4)cnc3s2)CC1 (centres undefined) | > 9.05 | > 9.05
CSc1nccc(-c2ccc(S(=O)(=O)N3CCCCC3)s2)n1 | > 9.28 | > 9.28
OCCCNc1nn2c(-c3ccccc3Cl)cnc2s1 | > 10.7 | > 10.7
CC(C)c1ccc(-c2cnc3sc(NCc4cccnc4)nn23)cc1 | > 9.44 | > 9.44
CCCCCCOc1ccc(-c2cnc(SC)nc2)cc1 | 0.205 | 0.535
Cc1cccc(Nc2cc3[nH]c(-c4ccc(C(=O)N(C)C)cc4)cc3cn2)c1 | 6.24 | > 10
C=S(=O)(NC(=O)c1ccc(C(F)(F)F)cc1)c1ccccc1 (centres undefined) | > 10.1 | > 10.1
CCn1cc(CN(C)C(=O)c2sc3cccc(Cl)c3c2Cl)c(C)n1 | > 8.63 | > 8.63
Nc1ccccc1C(=O)Nc1cc(C(F)(F)F)cc(C(F)(F)F)c1 | > 9.48 | > 9.48
N#CC(Nc1ccc(C(F)(F)F)cc1)c1ccccc1 (centres undefined) | > 11.9 | > 11.9
COc1ccc(-c2cnc3sc(NCCc4ccccn4)nn23)cn1 | > 9.36 | > 9.36

Structure (SMILES) | IC50 [µM] | IC90 [µM]
CC(C)(Oc1ccc(C#N)cc1)C(=O)O | > 16.1 | > 16.1
O=C1C=CC(=O)N1c1cccc2ccccc12 | > 14.8 | > 14.8
CC(C)CC(N)c1csc(NC(=O)Nc2ccc(F)c(Cl)c2)n1 (centres undefined) | > 9.25 | > 9.25
O=S(=O)(c1ccccc1)c1ccc(S(=O)(=O)N2CCCC2)s1 | > 9.23 | > 9.23
Cc1cc(NC(=O)c2cc(C(C)(C)C)oc2C)nc(C)n1 | > 11.5 | > 11.5
COc1cc(OC)cc(C(=O)Nc2nc(C(N)C3CCCCC3)cs2)c1 (centres undefined) | 5.25 | 5.41
O=C(CN1CSCC1=O)Nc1nc2ccccc2[nH]1 | > 10 | > 10
Cc1c(S(=O)(=O)c2ccc(Cl)cc2)csc1C(=O)N1CC(C)OC(C)C1 (centres undefined) | > 7.97 | > 7.97
Fc1cccc(-n2nnnc2-c2ccc(Cl)c(Cl)c2)c1 | > 10.7 | > 10.7
OC1CCC(Nc2nn3c(-c4ccc(F)c(Cl)c4)cnc3s2)CC1 (centres undefined) | > 9 | > 9
FC(F)(F)c1cccc(-c2cnc3sc(NCCc4ccncc4)nn23)c1 | > 8.47 | > 8.47
OCCCNc1nn2c(-c3cccc(F)c3)cnc2s1 | > 11.3 | > 11.3
N#CC(Nc1cc(C(F)(F)F)cc(C(F)(F)F)c1)c1ccccc1 (centres undefined) | 7.17 | > 9.59
Cc1noc(C)c1S(=O)(=O)N(C)Cc1ccc(-c2ccc(Cl)cc2)o1 | > 10 | > 10
CCCCn1c(C(C)Oc2ccc(Cl)cc2Cl)nc2cc(S(N)(=O)=O)ccc21 (centres undefined) | 0.233 | 0.529
CC(=O)Nc1ccc(C2NC(=O)NC(c3ccccc3)=C2c2nc3ccccc3s2)cc1 (centres undefined) | > 10 | > 10
O=C(NCCNc1ccnc2cc(Cl)ccc12)c1ccccc1F | 2.31 | 8.82
O=C(Nc1cc(C(F)(F)F)cc(C(F)(F)F)c1)Nc1cc(C(F)(F)F)cc(C(F)(F)F)c1 | > 6.81 | > 6.81
O=C(CN1CCN(C(C(=O)Nc2cc(C(F)(F)F)ccc2Cl)c2ccccc2)CC1)NC1CC1 (centres undefined) | 9.79 | > 10
Oc1c(C(Nc2nc3ccccc3s2)c2ccc(OC(F)F)cc2)ccc2cccnc12 (centres undefined) | 5.55 | > 10
CC1(C)N=C(N)N=C(N)N1c1ccc([N+](=O)[O-])cc1 | > 10 | > 10
CCN(CC)S(=O)(=O)c1ccc(C(=O)c2c(C)c(C(=O)C(F)(F)F)c3ccccn23)cc1 | > 10 | > 10
COc1ccc(Nc2ccnc3cc(Cl)ccc23)cc1OC | 7.03 | > 10
